# Experimental data from patent US20220317138A1, “METHODS FOR DETERMINING THE CONCENTRATION OF A CARBAPENEM ANTIBIOTIC IN A BIOLOGICAL SAMPLE” (priority 2019, published 2022).
# Like-named read-outs stand apart in the source and are kept apart here. Numbered stars: 1 amine (or outer) side, 2 acyl side, 3 side chain; on linkers, the order of the positions; unused ones are H or OH. Bridge positions count the residues as written; N and C are the ends. Square brackets hold non-standard residues; d marks the D form. Peptide text beside a SMILES is read from it. * marks the point of attachment. pTerphenylCO(4''-OnC5H11) = CCCCCOc1ccc(-c2ccc(-c3ccc(C(=O)*)cc3)cc2)cc1; Orn(4R-OH,5R-OH) = O=C([C@H](C[C@@H](O)[C@@H](O)N[*:3])N[*:1])[*:2]; hTyr(3S-OH,4S-OH) = N[C@H](C(=O)O)[C@H](O)[C@@H](O)c1ccc(O)cc1; Pro(3S-OH,4S-Me) = C[C@H]1CN[C@H](C(=O)O)[C@H]1O; Hyp = O=C(O)[C@@H]1C[C@@H](O)CN1
# Target: beta-lactamase class D OXA-48 (Klebsiella pneumoniae, UniProt Q6XEC0)
# Format: biochemical
# Conditions: for Average [meropenem]: average of three replicates
# [1] = second drug alone in ultrafiltrated serum at 10 times recommended blood concentration, result expressed as meropenem concentration, theoretically zero
# [2] = second drug alone in ultrafiltrated serum at 10 times recommended blood concentration, result expressed as meropenem concentration, theoretically zero, replicate 1
# [3] = second drug alone in ultrafiltrated serum at 10 times recommended blood concentration, result expressed as meropenem concentration, theoretically zero, replicate 2
# [4] = second drug alone in ultrafiltrated serum at 10 times recommended blood concentration, result expressed as meropenem concentration, theoretically zero, replicate 3
# [5] = second drug alone in ultrafiltrated serum at 10 times recommended blood concentration, […]
Compound,Average [meropenem] [1] [mg/L],[meropenem] (mg/L) Replicates 1 [2] [mg/L],[meropenem] (mg/L) Replicates 2 [3] [mg/L],[meropenem] (mg/L) Replicates 3 [4] [mg/L],[meropenem] (mg/L) Replicates 1 [mg/L],[meropenem] (mg/L) Replicates 2 [mg/L],[meropenem] (mg/L) Replicates 3 [mg/L],Average [meropenem] [5] [mg/L],interference with the method
CC(C)(C)NCC(O)c1ccc(O)c(CO)c1 (stereo not drawn) [Salbutamol],0.09,0.16,0.07,0.05,–,–,–,–,–
CN1CC[C@]23c4c5ccc(O)c4O[C@H]2[C@@H](O)C=C[C@H]3[C@H]1C5 [Morphine],-0.13,-0.12,-0.15,-0.10,–,–,–,–,–
COc1ccnc(C[S+]([O-])c2nc3cc(OC(F)F)ccc3[nH]2)c1OC (stereo not drawn) [Pantomed],–,–,–,–,0.02,0.01,-0.05,-0.01,–
Cc1ncc2n1-c1ccc(Cl)cc1C(c1ccccc1F)=NC2 [Midazolam Braun],–,–,–,–,-0.07,-0.09,-0.06,-0.07,–
CCCCc1oc2ccccc2c1C(=O)c1cc(I)c(OCCN(CC)CC)c(I)c1 [Cordarone],-0.16,-0.16,-0.15,-0.18,–,–,–,–,–
NS(=O)(=O)c1cc(C(=O)O)c(NCc2ccco2)cc1Cl [Lasix],-0.12,-0.13,-0.15,-0.09,–,–,–,–,–
OC(Cn1cncn1)(Cn1cncn1)c1ccc(F)cc1F [Fluconazole],0.07,0.02,0.10,0.11,–,–,–,–,–
CC[C@H](C)C[C@H](C)CCCCCCCCC(=O)N[C@H]1C[C@@H](O)[C@@H](NCCN)NC(=O)[C@@H]2[C@@H](O)CCN2C(=O)[C@H]([C@H](O)CCN)NC(=O)[C@H]([C@H](O)[C@@H](O)c2ccc(O)cc2)NC(=O)[C@@H]2C[C@@H](O)CN2C(=O)[C@H]([C@@H](C)O)NC1=O [Caspofungin],–,–,–,–,0.03,0.06,0.07,0.05,–
CNCC(O)c1ccc(O)c(O)c1 (stereo not drawn) [Adrenaline],-0.10,0.06,-0.37,0.00,–,–,–,–,–
CC(CCc1ccc(O)cc1)NCCc1ccc(O)c(O)c1 (stereo not drawn) [Dobutrex],-0.11,-0.07,-0.11,-0.14,–,–,–,–,–
C=CC[C@@H]1/C=C(\C)C[C@H](C)C[C@H](OC)[C@H]2O[C@@](O)(C(=O)C(=O)N3CCCC[C@H]3C(=O)O[C@H](/C(C)=C/[C@@H]3CC[C@@H](O)[C@H](OC)C3)[C@H](C)[C@@H](O)CC1=O)[C@H](C)C[C@@H]2OC.O [Prograft],–,–,–,–,-0.07,-0.06,-0.02,-0.05,–
"CCCCCOc1ccc(-c2ccc(-c3ccc(C(=O)N[C@H]4C[C@@H](O)[C@@H](O)NC(=O)[C@@H]5[C@@H](O)[C@@H](C)CN5C(=O)[C@H]([C@@H](C)O)NC(=O)[C@H]([C@H](O)[C@@H](O)c5ccc(O)cc5)NC(=O)[C@@H]5C[C@@H](O)CN5C(=O)[C@H]([C@@H](C)O)NC4=O)cc3)cc2)cc1 [Anidulafungin] ({pTerphenylCO(4''-OnC5H11)}-[Orn(4R-OH,5R-OH)]T[Hyp][hTyr(3S-OH,4S-OH)]T[Pro(3S-OH,4S-Me)]; lactam 1-C)",–,–,–,–,0.09,0.06,0.14,0.10,–
CCC1(CC)C(=O)NC(=S)NC1=O [Thiobarbital],0.10,0.12,0.11,0.09,–,–,–,–,–
O=C1CN=C(c2ccccc2Cl)c2cc([N+](=O)[O-])ccc2N1 [Clonazepam],0.05,0.06,0.06,0.01,–,–,–,–,–
COC(=O)C1=C(C)NC(C)=C(C(=O)OCCN(C)Cc2ccccc2)C1c1cccc([N+](=O)[O-])c1 (stereo not drawn) [Rydene],0.04,0.06,0.00,0.06,–,–,–,–,–
Actrapid,–,–,–,–,0.04,0.04,0.06,0.05,–
CC[C@@H](C(N)=O)N1CCCC1=O [Keppra],-0.07,-0.07,-0.07,-0.06,–,–,–,–,–
COc1ccc(C[C@@H]2c3cc(OC)c(OC)cc3CC[N@+]2(C)CCC(=O)OCCCCCOC(=O)CC[N@@+]2(C)CCc3cc(OC)c(OC)cc3[C@H]2Cc2ccc(OC)c(OC)c2)cc1OC [Nimbex],-0.03,0.01,-0.04,-0.08,–,–,–,–,–
C[C@@H](c1ncncc1F)[C@](O)(Cn1cncn1)c1ccc(F)cc1F [Voriconazole],0.01,0.00,-0.06,0.10,–,–,–,–,–
Cc1[nH]c(=O)c(C#N)cc1-c1ccncc1 [Milrinone],0.09,0.14,0.06,0.06,–,–,–,–,–
NCCc1ccc(O)c(O)c1 [Dopamine],-0.06,-0.05,-0.06,-0.07,–,–,–,–,–
C[C@]12CCC(=O)C=C1CC[C@@H]1[C@@H]2[C@@H](O)C[C@@]2(C)[C@H]1CC[C@]2(O)C(=O)COC(=O)CCC(=O)O [Solu-cortef],-0.03,-0.10,0.02,0.00,–,–,–,–,–
protamine,–,–,–,–,0.64,0.69,0.72,0.68,excepted for protamine
C[C@H]1C[C@@H]2[C@H]([C@@H](O)C[C@@]3(C)[C@H]2CC[C@]3(O)C(=O)COC(=O)CCC(=O)O)[C@@]2(C)C=CC(=O)C=C12 [Solu-Medrol],0.01,-0.01,0.02,0.01,–,–,–,–,–
O=C1NC(=O)C(c2ccccc2)(c2ccccc2)N1 [Diphantoïne],–,–,–,–,-0.15,-0.11,0.02,-0.08,–
NC[C@H](O)c1ccc(O)c(O)c1 [Noradrenaline],-0.11,-0.12,-0.12,-0.08,–,–,–,–,–
[Ca+2].[Cl-].[Cl-] [Calciclo],–,–,–,–,0.05,-0.04,-0.09,-0.03,–
CN1C(=O)CN=C(c2ccccc2)c2cc(Cl)ccc21 [Diazepam],0.03,0.05,0.04,0.01,–,–,–,–,–
CCCC(CCC)C(=O)[O-].[Na+] [Dapakine],–,–,–,–,-0.10,-0.10,-0.09,-0.09,–
